What was measured:
rat brain MAO-B [1] = target: T1, rat brain MAO-B (Rattus norvegicus, UniProt P19643); experiment: Inhibition of MAO-B activity in rat brain crude mitochondrial fraction; assay type: biochemical
T1 sequence (P19643 1-520): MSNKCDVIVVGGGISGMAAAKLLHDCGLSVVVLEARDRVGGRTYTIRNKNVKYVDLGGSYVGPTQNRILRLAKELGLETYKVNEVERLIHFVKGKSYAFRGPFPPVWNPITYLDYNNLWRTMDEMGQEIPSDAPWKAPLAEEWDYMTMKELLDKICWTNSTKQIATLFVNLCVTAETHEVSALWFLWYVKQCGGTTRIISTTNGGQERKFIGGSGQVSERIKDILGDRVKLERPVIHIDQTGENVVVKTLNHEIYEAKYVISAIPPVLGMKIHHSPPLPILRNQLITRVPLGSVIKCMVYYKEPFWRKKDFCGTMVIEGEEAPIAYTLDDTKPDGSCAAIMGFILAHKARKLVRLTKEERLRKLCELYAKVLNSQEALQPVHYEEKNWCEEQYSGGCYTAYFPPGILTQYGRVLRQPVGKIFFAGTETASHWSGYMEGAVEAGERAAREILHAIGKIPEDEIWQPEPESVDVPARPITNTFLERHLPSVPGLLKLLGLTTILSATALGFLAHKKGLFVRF

[2] = cited from earlier work
rat brain MAO-B [3] = target: T1, rat brain MAO-B; experiment: Kinetics of monoamine oxidase inhibition; assay type: biochemical; details: for Mechanism of inhibition: MAO-B, substrate benzylamine, Lineweaver-Burk

| Structure (SMILES) | IC50 (rat brain MAO-B [1]) [nM] | pKa value [2] | Mechanism of inhibition (rat brain MAO-B [3]) | Vmax (remained constant) (rat brain MAO-B [3]; ellagic acid, 200–600 μg/ml as printed, benzylamine 5-15 mM) [nM/min] |
| --- | --- | --- | --- | --- |
| COc1cc(C=CC(=O)CC(=O)C=Cc2ccc(O)c(OC)c2)ccc1O [Curcumin, 1,7-bis-(4-hydroxy-3-methoxyphenyl)-hepta-1,6-diene-3,5-dione] | 500 | 8.54 | noncompetitive | – |
| O=c1oc2c(O)c(O)cc3c(=O)oc4c(O)c(O)cc1c4c23 [Ellagic acid] | 412 | – | Competitive | 8.40 |
